Patent publication US20020187945A1, “Modulation of immune response by ribavirin” (priority 1999, published 2002)

What was measured:
B7-1 [1] = assay: B7-1 expression by FACS in lymph node cells from DNFB-primed mice, in vitro anti-αβ TCR challenge; type: cell-based, mouse; details: C57BL/6 lymph node cells, ribavirin 5 μM, FIG. 3 bottom panel
Protocol: (§1) The effect of ribavirin on B7-1 expression and B7-2 expression, at the time of challenge, in lymph node cells isolated from Ag-primed BALBc and C57BL/6 mice was examined. Mice were primed epicutaneously with dinitrofluorobenzene (DNFB) 6 days prior to concomitant ribavirin treatment (5 μM) and in vitro challenge using an immobilized anti-αβ TCR antibody. Unexpectedly, we observed opposing effects of ribavirin on DNFB-induced B7-1 expression and B7-2 expression in these two mouse strains.

B7-2 [2] = assay: B7-2 expression by FACS in lymph node cells from DNFB-primed mice, in vitro anti-αβ TCR challenge; type: cell-based, mouse; details: BALB/c lymph node cells, ribavirin 5 μM, FIG. 3 top panel
Protocol: as §1

BALB/c and C57BL/6 mice = assay: Contact hypersensitivity (CHS) ear response to DNFB in mice; type: in vivo, mouse; details: 0.5 mg/kg i.p. at challenge, 24 hours after challenge, FIG. 4
Protocol: The functional effect of this differential effect on B7-1 and B7-2 mediated by RIB was examined in an in vivo murine model of contact hypersensitivity, and a B7-2 dependent immune response (Eur. J. Immunol, 1996. 26: 880-885). Briefly, animals were primed with 2,4-dinitro-1-fluorobenzene (DNFB) (0.3%) epicutaneously on the abdomen and challenged 6 days later on each ear with 0.12% DNFB. Ribavirin-treated animals were injected intraperitoneally at the time of challenge with an optimal dose of 0.5 mg/kg in 50 μl PBS. Ear measurements were taken before challenge and 24 hours after challenge. Response to DNFB was expressed as the difference between the two ear measurements. […] Ear responses in BALB/c mice were augmented following ribavirin (RIB) treatment but were impaired in ribavirin-treated C57BL/6 mice.

B7-1 mRNA = B7-1 mRNA (RT-PCR/Southern) in lymph node cells of ribavirin-treated CHS mice; type: in vivo, mouse; details: FIG. 5
Protocol: (§2) To determine the effect of ribavirin on the functional role of B7-1 and B7-2 on contact hypersensitivity (CHS) responses, we measured B7-1 and B7-2 mRNA levels in RNA isolated from the lymph node cells of the animals used in the above CHS experiments. Following RT-PCR with specific primers, electrophoresis and Southern blotting, PCR products were analyzed by hybridization with 32P-labeled specific probes. […] In contrast, in C57BL/6 mice, B7-1 mRNA expression was enhanced by ribavirin, but B7-2 mRNA expression was unaffected.

B7-2 mRNA = B7-2 mRNA (RT-PCR/Southern) in lymph node cells of ribavirin-treated CHS mice; type: in vivo, mouse; details: FIG. 5
Protocol: as §2

B7-1 [3] = assay: B7-1 expression by FACS in IFNα-treated splenocytes from unstimulated mice; type: cell-based, mouse; details: C57BL/6 splenocytes, with IFNα, FIG. 6 bottom panel
From the text: (§3) We determined the levels of […] and B7-2 by FACS analysis from IFNα-treated splenocytes from unstimulated BALB/c and C57B6 mice in order to determine whether the effect of ribavirin on the functional role of B7-1 and […] was a) inducible in resting, unstimulated lymphocytes, b) required the action of a B7 inducer such as IFNα, or c) elicited the same affects on the two mouse strains upon replacing antigen stimulation with a B7 inducer. […] In contrast, in C57BL/6 splenocytes (bottom panel), IFNα-induced B7-1 expression was enhanced by ribavirin but B7-2 expression was unaffected.

B7-2 [4] = assay: B7-2 expression by FACS in IFNα-treated splenocytes from unstimulated mice; type: cell-based, mouse; details: with IFNα
From the text: as §3

B7-1 [5] = assay: B7-1 mRNA (RT-PCR) in human PBMCs with B7-inducing cytokines; type: cell-based
From the text: (§4) The differential effect by ribavirin on B7-1 and B7-2 expression as observed in the two mouse strains was examined in human peripheral blood mononuclear cells (PBMCs). Here we used three cytokines, IFNα, IFNβ, and TNFα to induce B7-1 and B7-2 expression. […] Two distinct outcomes were observed.

B7-2 [6] = assay: B7-2 mRNA (RT-PCR) in human PBMCs with B7-inducing cytokines; type: cell-based
From the text: as §4

IL-10 = IL-10 levels in human PBMCs with B7-inducing cytokines; type: cell-based
From the text: as §4

TNFα = TNFα levels in human PBMCs with B7-inducing cytokines; type: cell-based
From the text: as §4

[7] = BALB/c mice of the CHS experiment
[8] = C57BL/6 mice of the CHS experiment
[9] = 24 hour incubation with B7-inducing cytokines, FIG. 7 right hand panel (B)
[10] = 24 hour incubation with IFNα, IFNβ or TNFα, FIG. 7 left panel (A)

## NC(=O)c1ncn([C@@H]2O[C@H](CO)[C@@H](O)[C@H]2O)n1 [ribavirin, 1-β-D-Ribofuranosyl-1,2,4-Triazole-3-Carboxamide]
B7-1 [1]
  B7-1 expression (mean channel fluorescence): enhanced B7-1 expression
B7-2 [2]
  B7-2 expression (mean channel fluorescence): enhanced B7-2 expression
BALB/c and C57BL/6 mice; BALB/c mice
  Inflammatory ear response to DNFB: augmented
BALB/c and C57BL/6 mice; C57BL/6 mice
  Inflammatory ear response to DNFB: impaired
B7-1 mRNA; [7]
  B7-1 mRNA expression in lymph node cells: unaffected
B7-1 mRNA; [8]
  B7-1 mRNA expression in lymph node cells: enhanced
B7-2 mRNA; [7]
  B7-2 mRNA expression in lymph node cells: augmented
B7-2 mRNA; [8]
  B7-2 mRNA expression in lymph node cells: unaffected
B7-1 [3]
  IFNα-induced B7-1 expression: enhanced
B7-2 [4]; BALB/c splenocytes, FIG. 6 top panel
  IFNα-induced B7-2 expression: augmented
B7-2 [4]; C57BL/6 splenocytes, FIG. 6 bottom panel
  IFNα-induced B7-2 expression: unaffected
B7-1 [5]; [9]
  B7-1 expression: decreased B7-1 expression
B7-1 [5]; [10]
  B7-1 mRNA expression: increased
B7-2 [6]; [9]
  B7-2 expression: increased B7-2 expression
B7-2 [6]; [10]
  B7-2 expression: decreased
IL-10; [9]
  IL-10 levels: dropped
IL-10; [10]
  IL-10: concomitant increase
TNFα; [9]
  TNFα levels: increased
TNFα; [10]
  TNFα: concomitant decrease
